Test results from patent publication US7858578B2, “Methods of inducing neuronal growth by a Fucose-α(1-2) galactose (fuc-α(1-2) gal) moiety and a lectin” (California Institute of Technology, priority 2004, dated 2010).

Legend:
hippocampal neurons [1] = test: Binding of biotinylated probe to cultured hippocampal neurons (streptavidin-AlexaFluor 488 imaging); format: cell-based, rat; conditions: 3 mM, 10 μM PAO; for labeling of neurons after de-lipidation: neurons de-lipidated with MeOH/CHCl3; for binding to hippocampal neurons: 1 h, E18 neurons 23 days in vitro
Procedure: Hippocampal neurons were cultured using a procedure modified from Goslin and Banker, in Culturing Nerve Cells, Banker, G., Goslin, K., Eds., pp. 251-281, MIT Press: Cambridge, Mass. 1991. Briefly, the hippocampi of embryonic day 18 (E18) rats were dissected and transferred to 4.5 mL of ice-cold Calcium and Magnesium Free-Hank's Balanced Salt Solution (CMF-HBSS). Trypsin (2.5%, no EDTA) was added to 5 mL, and the tissue was incubated for 15 min at 37° C. The trypsin solution was removed and the tissue sample washed three times with 5 mL of CMF-HBSS. Cells were then dissociated from the tissue in 1 mL of CMF-HBSS by passing through a P1000 pipet tip twenty times. The cells were counted, diluted into Minimal Eagle's Medium (MEM) plus 10% fetal bovine serum, and seeded on poly-DL-ornithine-coated glass coverslips (Carolina Biological) at a density of 75 cells/mm2 (100 μL/coverslip) for 30 min. After this time, 500 μL of supplemented Neurobasal medium (47.5 mL Neurobasal medium without Lglutamine; 0.5 mL L-glutamine (200 mM); 0.5 mL penicillin/streptomycin (10,000 U/mL); 0.5 mL antibiotic-antimycotic (100× stock), 1.0 mL B-27 serum-free supplement (50× stock); 50 μL of 0.5 M kynurenic acid in 1 N NaOH) was added to each coverslip. The use of kynurenic acid to block glutamate receptor ion channels and enhance neuronal health and survival is standard protocol for neuronal cultures. Id. The cultures were maintained in 5% CO2 at 37° C. in supplemental Neurobasal medium.
After 23 days in culture, the medium was replaced, and neurons were treated with the endocytosis inhibitor phenylarsine oxide (PAO; 4 μL in DMSO, final concentration 10 μM) (Nouel, D., et al., J. Neurosci. 17:1795-1803 (1997)) and either compound III (24 μL in PBS, final concentration 3 mM), or biotin (24 μL in PBS, final concentration 3 mM), in supplemented Neurobasal medium (400 μL final volume) for 1 h at 37° C., 5% CO2. After 1 h, neurons were rinsed 2 times with PBS, fixed in 4% paraformaldehyde for 20 min at rt, washed 2 times with PBS, permeabilized in 0.3% Triton X-100 for 5 min at rt, and washed 2 times with PBS. Non-specific binding was blocked with 3% BSA for 1 h at rt and then rinsed one time with PBS. Compound III was detected with streptavidin conjugated to AlexaFluor 488 (1:200, Molecular Probes). Dye-conjugated streptavidin was added in 3% BSA for 1 h at 37° C. and the excess reagent washed off 5 times with PBS. Coverslips were then mounted onto slides with Vectashield, sealed, and imaged using confocal laser microscopy. Results can be seen in FIG. 2.
De-lipidation was performed on some samples following the protocol of Yavin, E. et al., J. Neurosci. Res. 9:229-237 (1983). Briefly, after 23 days in culture, cells were rinsed once with PBS then exposed to MeOH/CHCl3 (½ by vol.) for 15 min at −80° C. This procedure fixes the cells to the coverslip and extracts cellular lipids. After removing the MeOH/CHCl3 mixture, coverslips were dried at rt then incubated with 3% BSA for 1 hr at rt. After one rinse with PBS, neurons were treated with PAO and the procedure described above was followed.

hippocampal neurons [2] = test: Neurite outgrowth of hippocampal neurons treated with carbohydrate-PAA conjugates; format: cell-based, rat; conditions: FIG. 4B, concentration and valency series
Procedure: Hippocampal neurons were cultured using a procedure modified from Goslin and Banker, in Culturing Nerve Cells, Banker, G., Goslin, K., Eds., pp. 251-281, MIT Press: Cambridge, Mass. 1991. Briefly, the hippocampi of embryonic day 18 (E18) rats were dissected and transferred to 4.5 mL of ice-cold Calcium and Magnesium Free-Hank's Balanced Salt Solution (CMF-HBSS). Trypsin (2.5%, no EDTA) was added to 5 mL, and the tissue was incubated for 15 min at 37° C. The trypsin solution was removed and the tissue sample washed three times with 5 mL of CMF-HBSS. Cells were then dissociated from the tissue in 1 mL of CMF-HBSS by passing through a P1000 pipet tip twenty times. The cells were counted, diluted into Minimal Eagle's Medium (MEM) plus 10% fetal bovine serum, and seeded on poly-DL-ornithine-coated glass coverslips (Carolina Biological) at a density of 75 cells/mm2 (100 μL/coverslip) for 30 min. […]
The association of Fucα(1-2)Gal with potential lectins was studied to determine if it would stimulate neuronal growth. […] The cultures were incubated in 5% CO2 at 37° C. and analyzed. […]
For each experiment, 50 randomly selected cells were analyzed per coverslip using similar quantitative analysis techniques reported by Schmid et al., J. Neurosci. […] Briefly, only neurites longer than ˜10 μm and not in contact with other cells were measured using NIH Image 1.62 software. […]

## C[C@@H]1O[C@@H](O[C@H]2[C@H](OCCOCCNC(=O)CCCC[C@@H]3SC[C@@H]4NC(=O)N[C@@H]43)O[C@H](CO)[C@H](O)[C@@H]2O)[C@@H](O)[C@H](O)[C@@H]1O [Compound III]
Hippocampal neurons [1]
  labeling of neurons after de-lipidation: labeling was not diminished
  binding to hippocampal neurons: binds
Hippocampal neurons [1]; listed as probe III
  labeling of neurons after de-lipidation: does not alter the labeling
Hippocampal neurons [1]; listed as compound III
  binding to hippocampal neurons: binding of compound III to the cell body and neurite processes
Hippocampal neurons [2]
  neurite outgrowth activity: only modest activity
